One assay has as its system PECAM-1. As to the kind of experiment: Ex vivo soluble PECAM-1 plasma levels in patients. Also noted: species or system human. As to conditions: patients with depression following myocardial infarction; after 16 weeks of the sertraline/placebo therapy. The protocol:
Soluble P-selectin (Centocor, Inc., Malvern, Pa. USA); and PECAM-1 (Bender MedSystems, Vienna, Austria) are measured Plasma samples will be extracted with ethanol and then stored at −80° C. before final determination. Enzyme-linked immunosorbent assays will be used according standard techniques and as described herein.

A further assay deals with P-selectin. As to the kind of experiment: Whole blood flow cytometry. As to conditions: for P-Selectin (% +), % of cell positivity: Whole Blood. The class given is cell-based, human. From the text: For ex vivo assessment of the SSRIs effect on a PAM, a level of a PAM can be assessed by flow cytometry by first obtaining a sample that comprises platelets and then contacting the sample with a platelet activation agonist, such as phorbol myristate acetate (PMA), ADP (adenosine diphosphate), thrombin, collagen, and/or TRAP (thrombin receptor activating peptide), under conditions suitable for activation of platelets in the sample. The sample is in contact with the agonist preferably for a period of time effective to maximally activate the platelets. […] Then one contacts or stains the samples with a composition that comprises an anti-PAM antibody e.g., having a fluorescent label, preferably in an amount in excess of that required to bind the PAM expressed on the platelets, under conditions suitable for the formation of labeled complexes between the anti-PAM antibody and activated platelets. Then the formation of the complex in the sample is determined (detected or measured).
Four cc of blood was collected in a tube, containing 2 cc of acid-citrate-dextrose (ACD) (7.3 g citric acid, 22.0 g sodium citrate×2H2O and 24.5 glucose in a total amount of 1000 mL distilled water) and mixed well. The buffer, TBS (10 mM Tris, 0.15 M NaCl, pH 7.4) and the following fluorescein isothiocyanate (FITC) conjugated monoclonal antibodies (PharMingen, San Diego, Calif. USA, and DAKO, Calif., USA) were removed from a refrigerator and allowed to warm at room temperature (RT): CD41 (IIb/IIIa), CD31 (PECAM-1), CD62p (P-selectin), CD51/61 (Vitronectin receptor). Six amber tubes (1.25 ml) were obtained and marked. One Eppendorf tube (1.5 ml) was labeled with “Dill WB”, Patient ID #, Initial and Date. The amber tubes and Eppendorf tube were placed in the rack. […] of TBS buffer was pipetted to the labeled Eppendorf tube. The patient's whole blood tube was inverted gently twice to mix. 50 μl of whole blood was pipetted to the “Dill WB” labeled Eppendorf tube. The Eppendorf tube was capped and the diluted whole blood was mixed by inverting the Eppendorf tube gently two times 50 μl of diluted whole blood was pipetted to each amber tube. 5 μl of appropriate antibody was pipetted to the bottom of the corresponding amber tube. The tubes were covered with aluminum foil and incubated at 4° C. for 30 minutes. After incubation, 400 μl of 2% buffered paraformaldehyde was added. To prepare 2% Paraformaldehyde:Dilute 1 part 10% paraformaldehyde with 4 parts TBS. This solution was stored at 4° C. for up to one week. The amber tubes were closed with a lid tightly and stored in a refrigerator at 4° C. until the flow cytometric analysis. The samples are analyzed on a Becton Dickinson FACScan flow cytometer. The instrument is set up to measure forward light scatter (FSC), and FITC fluorescence. All parameters are collected using four decade logarithmic amplification.
The data in table 1 was obtained using the methods described herein, and in particular, in Examples 1 and 2. The levels of various PAMs were assess from samples of human volunteers. […] Baseline levels of the PAMs were also obtained (without exposure to sertraline or NDMS).
For orientation: Flow cytometry measures light scatter and fluorescence of single cells or particles in a stream.

For `CN[C@H]1CC[C@@H](c2ccc(Cl)c(Cl)c2)c2ccccc21` [sertraline], the “ex vivo PECAM-1 plasma levels, in words” value in the assay with PECAM-1 is on record as “Mild, but consistent reduction”.

Consider `N[C@H]1CC[C@@H](c2ccc(Cl)c(Cl)c2)c2ccccc21` [Desmethyl sertraline, N-desmethylsertraline], for which the “P-Selectin (% +), % of cell positivity” value with P-selectin (healthy volunteers, desmethylsertraline 31.1 ng/ml) worked out at 1.2%; in the assay on P-selectin (healthy volunteers, desmethylsertraline 64.2 ng/ml), 3.3%; in the assay with P-selectin (healthy volunteers, desmethylsertraline 143 ng/ml), 0.4%; in the assay on P-selectin (post-angioplasty patient on aspirin, desmethylsertraline 31.1 ng/ml), 10.68%; in the assay on P-selectin (post-angioplasty patient on aspirin, desmethylsertraline 64.2 ng/ml) it was 8.04%; in the assay with P-selectin (post-angioplasty patient on aspirin, desmethylsertraline 143 ng/ml), 9.92%. In addition, in the assay with P-selectin (whole blood, post-angioplasty patient, increasing concentrations), the “P-selectin expression (FIG. 4), in words” value is on record as “striking decreases in expression”.

Values taken from patent US6552014B2, “Methods of inhibiting platelet activation with selective serotonin reuptake inhibitors” (HeartDrug Research, L.L.C., priority 1999, dated 2003).
